What was measured:
[1] = system: rat primary cortical neuronal cultures transfected with G2019S LRRK2; assay: LRRK2-induced neuronal toxicity in primary cortical neuronal cultures (neurite shortening, TUNEL); assay type: cell-based; conditions: 0.5 μM
Protocol: Representative photomicrographs of each experimental group. LRRK2 and eGFP constructs were combined in a molar ratio of 10:1, respectively, and transfected by using of Lipofectamine 2000 (Invitrogen) at DIV (day in vitro) 14 into rat primary cortical neuronal cultures. Compounds (0.5 μM) were administrated at the time of transfection and continued until toxicity assessments. On DIV 16, images were collected on a Zeiss Automatic stage with Axiovision 6.0. (a) Low magnified photomicrographs; (b and c) High magnified photomicrographs. Scale bar=50 μm (a) and 10 μm (b and c);
Primary cortical neuronal cultures were prepared from gestational day 15 fetal rats as previously described. Gonzalez-Zulueta, M., et al. Manganese superoxide dismutase protects nNOS neurons from NMDA and nitric oxide-mediated neurotoxicity. J Neurosci 18, 2040-2055 (1998). All procedures used in this study were approved by the Johns Hopkins Medical Institute Animal Care Committee. Cell viability assays and DNA fragmentation (TUNEL assay) were performed as previously described. Smith, W. W., et al. Kinase activity of mutant LRRK2 mediates neuronal toxicity. Nat Neurosci 9, 1231-1233 (2006); West, A. B., et al. Parkinson's disease-associated mutations in LRRK2 link enhanced GTP-binding and kinase activities to neuronal toxicity. Hum Mol Genet 16, 223-232 (2007). The cortex was dissected, incubated for 15 min in 0.027% trypsin, and then transferred to modified Eagle's medium (MEM)/10% horse serum/10% fetal bovine serum/2 mM glutamine followed by trituration. Dissociated cells were plated at a density of 3-4×10^5 cells per well in polyornithine-coated plates. After 4 days the cells were treated with 10 μg of 5-fluoro-2′-deoxyuridine to prevent proliferation of nonneuronal cells. Cells were maintained in MEM/5% horse serum/2 mM glutamine in 8% CO2 incubator. The medium was changed twice weekly. For assessment of LRRK2-mediated neuronal injury, LRRK2 and eGFP constructs were combined in a molar ratio of 10:1, respectively, and transfected into neurons with Lipofectamine 2000 (Invitrogen) at DIV (day in vitro) 14. On DIV 16, images were collected on a Zeiss Automatic stage with Axiovision 6.0. Viable neurons were defined as having at least one smooth extension (neurite) with twice the length of the cell body. The percentage of eGFP-positive injured neurons in each experimental group relative to those neurons transfected with eGFP was calculated.

[2] = system: HSV-G2019S LRRK2 dopaminergic neurotoxicity; assay: HSV amplicon-based mouse model of LRRK2 dopaminergic neurotoxicity; assay type: in vivo; conditions: for loss of tyrosine hydroxylase-positive neurons induced by HSV-G2019S LRRK2: 2.5 mg per kg i.p. twice daily, 3 weeks, versus DMSO- and indirubin-injected controls
[3] = from literature; cited from earlier work
[4] = system: C. elegans expressing LRRK2 G2019S in DA neurons; assay: Transgenic nematode model of LRRK2 G2019S-induced DA neurodegeneration; assay type: in vivo, Caenorhabditis elegans; conditions: for rescue of DA neurodegeneration: 7 day-old worms; for worms with wild-type DA neurons (4 CEP and 2 ADE): 7-day-old worms, n=90, 48% with 1% DMSO
Protocol: Nematodes were maintained following the standard procedures. Brenner, S., 771 GENETICS 71-94 (1974). Isogenic worm strains expressing LRRK2, G2019S, UAXX [baInlX; Pdat-1::LRRK2 G2019S, Pdat-1::gfp] were generated via microinjection, integrated into the genome and out-crossed three times. Age-synchronized worms were obtained by treating gravid adults with 2% sodium hypochlorite and 0.5M NaOH to isolate embryos. Lewis, J. A., 48 METHODS CELL BIOL. 3-29 (1995). These embryos were treated with indicated concentrations of LRRK2 kinase inhibitors, which were dissolved in 1% DSMO, for 24 h. at 20° C. with gentle shaking. The worms were then washed and transferred into NGM plates seeded with OP50 bacteria, and incubated as 20° C. The six anterior DA neurons (4 CEP and 2 ADE neurons) of 30 animals/trial were examined for neurodegeneration when the animals were 7 days old. A total of 90 animals for each treatment were analyzed (3 trials of 30 animals/trial). […] See Hamamichi et al., 105(2) PROC. NATL. ACAD. SCI. USA 728-33 (2008); and Cao et al, 25 J. NEUROSCI. 3801-12 (2005). For each trial, 30 worms were transferred into a 2% agarose pad, immobilized with 2 mM levamisole, and analyzed using Nikon Eclipse E800 epifluorescence microscope equipped with Endow GFP HYQ filter cube (Chrom Technology, Rockingham, Vt.). Images were captured with a Cool Snap CCD camera (Photometrics, Tucson, Ariz.) driven by MetaMorph software (Universal Imaging, West Chester, Pa.).
To determine whether the LRRK2 kinase inhibitors protect against LRRK2-induced neurodegeneration in vivo, the LRRK2 kinase inhibitors were tested in the C. elegans model of LRRK2 G2019S-induced neurodegeneration described above. The DA transporter (dat-1) was used to direct expression of LRRK2 G2019S in DA neurons.

| Compound | G2019S LRRK2 cell death (TUNEL) [1] | G2019S LRRK2 cell injury (neurite shortening) [1] | loss of tyrosine hydroxylase-positive neurons induced by HSV-G2019S LRRK2 [2] | crossing of the blood-brain barrier [3] | G2019S LRRK2 toxicity [1] | rescue of DA neurodegeneration [4] | worms with wild-type DA neurons (4 CEP and 2 ADE) ([4]; 10 μM) [%] | worms with wild-type DA neurons (4 CEP and 2 ADE) ([4]; 25 μM) [%] | increase in ILB4-positive cells in striatum and substantia nigra pars compacta ([2]; G2019S LRRK2 mice, 2.5 mg/kg i.p. twice daily) | reduction in the density of tyrosine hydroxylase-positive fibers (striatum) ([2]; HSV-LRRK2 G2019S mice, 2.5 mg/kg i.p. twice daily) |
| --- | --- | --- | --- | --- | --- | --- | --- | --- | --- | --- |
| O=C1Nc2ccccc2/C1=C1/Nc2ccccc2/C1=N\O [Inhibitor 70, Indirubin-3-monooxine] | attenuated | attenuated | attenuated | known to cross the blood-brain barrier |  |  |  |  |  |  |
| Cc1ccc(NC(=O)c2cccc(N(C)C)c2)cc1NC(=O)c1ccc(O)cc1 [Inhibitor 53, ZM336372] |  |  |  |  | failed to inhibit | failed to rescue |  |  |  |  |
| O=C1Nc2ccc(I)cc2/C1=C/c1cc(Br)c(O)c(Br)c1 [Inhibitor 56, GW5074] | attenuated | attenuated | attenuated | known to cross the blood-brain barrier |  | protect worms from neurodegeneration | 66 | 67 | prevented | rescued |
